# Measurements: patent US20210023223A1, “HYDROCARBON / LIPID - CAROTENOID COMPLEXES” (IP SCIENCE LIMITED, priority 2018, published 2021)
# Key:
# [1] = Oil volume needed to cover water surface; format: physicochemical; conditions: vs unmodified olive oil
# Source text: The other way to assess changes in oil viscosity, caused by carotenoids, would be to measure how much oil would be needed to cover a water surface of the same size. The lower viscosity of the oil the more spreadable it will be, and consequently less of it would be needed to cover this surface. Therefore, by measuring how much oil would be required to cover a certain surface of water we can asses how deep changes in the lipid folding were made by incorporating carotenoids.
# An additional nine heating experiments were carried out when either pure Napolina olive oil, Napolina olive oil containing Astaxanthin (7 mg/ml), or Napolina olive oil containing Lycopene (7 mg/ml) was carefully poured over the surface of the water in order to prevent evaporation. The amount of oil required to completely cover the surface of the 100 ml water sample in the cup (diameter—7.4 cm) was measured (15 ml Falcon laboratory tubes and 1 ml Pipetman pitettes were used) and recorded for each oil type. The thickness of the resulting oil film (necessary to completely cover water surface) was then calculated. Temperature change curves were compared for uncovered water and water samples overlayed with three varieties of oil at heating temperatures of 200° C., 250° C. and 300° C. Water samples overlaid with oils were heated until water reached boiling point (usually at 99° C.). […]
# [2] = system: moderately obese volunteers; assay: LDL-Px, serum LDL peroxidase proteins; format: in vivo, human
# Protocol: (§1) Study Design. The total number of volunteers recruited to take part in the study was 18 (9 male and 9 female subjects) Caucasians 40-67 years old.
# (§2) Products Formulated with Lycopene was developed and made by Lycotec Ltd. (Cambridge, United Kingdom). The daily dose was 1 capsule of 20 mg of lycopene, and it was taken with the main meal of the day. The period of administration was 1 month.
# (§3) LDL-Px and Lipoprotein O2. Activity of serum LDL peroxidase proteins, which include IgG with superoxide dismutase activity, was measured as described previously. Plasma oxygen, which carried by blood lipids/lipoproteins was measured by catalymetry.
# [3] = Heating dairy butter to boiling point; format: physicochemical
# Protocol: Small pieces of butter (about 1 g) were placed in a metallic tray. They were heated to 350° C. (Revotherm, Scientific Instruments Ltd.) and boiled for 3 minutes. Time taken to reach boiling point was fixed with a laboratory timer (QUANTUM).
# [4] = system: moderately obese volunteers; assay: Inflammatory Oxidative Damage (IOD) of serum; format: in vivo, human
# Protocol: as §1, §2
# Serum samples were incubated overnight in 0.05 M PBS acetate buffer (pH 5.6) to imitate the type of oxidative damage, which occurs during the release of lysosomes following neutrophil degranulation. The following morning the reaction was stopped using trichloroacetic acid. The concentration of the end products such as malonic dialdehyde (MDA), and other possible thiobarbituric acid reactive substances (TBARS), was then measured by colorimetry using reagents and kits from Cayman Chemical (MC, USA).
# Melting time at 37° C. = format: physicochemical
# Protocol: Approximately 20 mg of butter, or pork fat, or beef fat, or cocoa butter, or chocolate, with or without certain concentrations of carotenoids, were placed on the surface of the laboratory slides and incubated at 37° C. in a laboratory incubator (TLK39).
# Results presented in FIG. 15 show three different carotenoids—lycopene, lutein and astaxanthin, can reduce, albeit to a different degree, the melting time of dark chocolate regardless of its tempering protocols: Protocol I—28° C., Protocol II—29° C., Protocol III—30° C.
# [5] = Size of Canola oil lipid droplets, microscopy; format: physicochemical
# Source text: (§4) For measurement of lipid droplets and fat globules and quantification of their size binocular microscope Olympus BX41 was used with Cell^B software for morphometric analysis. All parameters were collected from 10 randomly selected microscopic fields at ×1000).
# The effect of adding lycopene into another polyunsaturated oil, in this case cod liver oil, was a dose-dependent increase in the size of its lipid structures. For Olive and Sunflower oils this increase in diameter caused by lycopene could reach 20 fold, for Canola and Cod Liver oil it was 50 or 100 fold.
# [6] = Size of Olive oil lipid droplets, microscopy; format: physicochemical; set-up: Olive oil lipid droplets, Droplet square: unit not given here
# Protocol: as §4
# When lycopene was added to olive oil, rich with monounsaturated fatty acids, it increased the size of its lipid droplets in a dose-dependent manner, and table 4.
# [7] = system: moderately obese volunteers; assay: Lipoprotein O2 by catalymetry; format: in vivo, human
# Protocol: as §1, §2, §3
# [8] = Heating olive oil-in-water emulsions; format: physicochemical
# [9] = system: moderately obese volunteers; assay: Serum lipids after 20 mg lycopene for 1 month; format: in vivo, human
# Protocol: as §1, §2
# Blood was collected by phlebotomy in the morning, in the hospital, from the arm veins of patients following night fast. The serum was separated from the rest of the clotted mass by centrifugation; aliquots were then stored in code-labelled tubes for blinded analysis and stored at −80° C. until use.
# [10] = system: B10.MLM cells (alveolar macrophages); assay: Transmission electron microscopy of cells; format: cell-based; conditions: 48 hours
# Protocol: B10.MLM cells were cultured with or without lycopene for 48 hours and then harvested from the plates with trypsin-versene solution. Cell pellets obtained by centrifugation for 10 min at 1500 r.p.m. (Rotanta 460R; Hettich) were fixed with Ito-Karnovsky fixative solution, followed by post-fixation with OsO4 and treatment with aqueous uranyl acetate to provide contrast. The specimens were subsequently dehydrated in an ascending series of alcohol concentrations (50, 70, 96 and 100% ethanol), infiltrated with a 1:1 (v/v) mixture of LR White resin and 100% ethanol for 1 h and in a pure resin for 12 h at 4° C. Resin polymerization was performed at 56° C. for 24 h. Ultrathin sections were prepared, treated with a lead solution to provide contrast (Reynolds, 1963) and analysed using a JEOL 100B transmission electron microscope with an accelerating voltage of 80 kV (Jeol, Japan).
# [11] = after 20 mg lycopene daily for one month
# [12] = lycopene dose 0.1 per 30 g of Olive oil
# [13] = lycopene dose 0.5 per 30 g of Olive oil
# [14] = lycopene dose 1.0 per 30 g of Olive oil
# [15] = lycopene dose 2.0 per 30 g of Olive oil
# [16] = lycopene dose 3.5 per 30 g of Olive oil
# [17] = lycopene dose 7.0 per 30 g of Olive oil
# [18] = lycopene dose 10.0 per 30 g of Olive oil
smiles,measurement,setting,value
CC(C)=CCC/C(C)=C/C=C/C(C)=C/C=C/C(C)=C/C=C/C=C(C)/C=C/C=C(C)/C=C/C=C(\C)CCC=C(C)C [Lycopene],Reduction of oil required to cover the same water area,[1],~60%
same,LDL-Px,[2]; [11],286 ± 29^ ELISA × 10^3
same,LDL-Px,"[2]; before, n = 18",545 ± 49^ ELISA × 10^3
same,Reduction of time to bring butter to its boiling point,[3]; number of lycopene molecules increased to 10,75%
same,Reduction of time to bring butter to its boiling point,"[3]; one molecule of lycopene to more than 22,000 molecules of butter triglycerides",25%
same,IOD,[4]; [11],60 ± 5.8 μM MDA
same,IOD,"[4]; before, n = 18",107 ± 11.6 μM MDA
same,Melting time of dark chocolate,Melting time at 37° C.,8 min
same,Increase in lipid droplet diameter,[5],50 fold
same,"Olive oil lipid droplets, Droplet square",[6]; [12],27.2
same,"Size of Olive oil lipid droplets, Mean",[6]; [12],46.24 μm
same,"Olive oil lipid droplets, Droplet square",[6]; [13],36.36
same,"Size of Olive oil lipid droplets, Mean",[6]; [13],40.00 μm
same,"Olive oil lipid droplets, Droplet square",[6]; [14],10.29
same,"Size of Olive oil lipid droplets, Mean",[6]; [14],185.13 μm
same,"Olive oil lipid droplets, Droplet square",[6]; [15],17.39
same,"Size of Olive oil lipid droplets, Mean",[6]; [15],260.80 μm
same,"Olive oil lipid droplets, Droplet square",[6]; [16],24.05
same,"Size of Olive oil lipid droplets, Mean",[6]; [16],457.00 μm
same,"Olive oil lipid droplets, Droplet square",[6]; [17],61.31
same,"Size of Olive oil lipid droplets, Mean",[6]; [17],490.50 μm
same,"Olive oil lipid droplets, Droplet square",[6]; [18],36.77
same,"Size of Olive oil lipid droplets, Mean",[6]; [18],367.70 μm
same,"Increase in lipid droplet diameter, could reach",[6]; olive oil,20 fold
same,Lipoprotein O2,[7]; [11],3.44 ± 0.27 µM
same,Lipoprotein O2,"[7]; before, n = 18",2.94 ± 0.25 µM
same,Rate of heating of olive oil emulsion in water in the first 3 minutes,"[8]; 50%:50%, 1 molecule lycopene to 67,000 or astaxanthin to 71,000 fatty acids, control 10° C.",18 °C
same,Maximum temperature the emulsion could reach,"[8]; water to olive oil 75%:25%, control 62° C.",100 °C
same,HDL,[9]; [11],49.9 ± 3.0^ mg/dL
same,LDL,[9]; [11],121 ± 10.5 mg/dL
same,Triglycerides,[9]; [11],128 ± 9.7 mg/dL
same,HDL,"[9]; before, n = 18",49.2 ± 2.9^ mg/dL
same,LDL,"[9]; before, n = 18",134 ± 11.3 mg/dL
same,Triglycerides,"[9]; before, n = 18",136 ± 10.1 mg/dL
same,Mitochondrial structures,[10],significantly increased both in size and their numbers
